Assay results as given in patent US5925369A, “Bis alkanoyl esters of carnitine having bactericidal, fungicidal and antiprotozoal activity” (priority 1996, dated 1999).

Tests used:
Trichomonas vaginalis = assay: MIC on protozoa (Trichomonas vaginalis); format: cell-based; conditions: Metronidazole resistant strains T. vaginalis SS-20 and SS-22 (25 and 50)
Method: Protozoal suspensions are prepared from 24-hour cultures grown at 37° C. and 5% CO2 in DIAMOND T.Y.M. broth supplemented with 10% heat-inactivated FCS.
The suspensions are adjusted, in the same medium, to a final concentration of 2.5×10^5 cells/ml in each well of a 96-well microtiter plate. Substance dilutions (0.3 log) are added to the suspensions in order to have a range of final concentrations from 0.19 to 100 mcg/ml. Microtiters are then incubated at 37° C. and 5% CO2 for 24 hours. MIC is referred to as the minimal concentration inhibiting either protozoa or flagella or undulating membrane motility (Cf. JULIANO C., MARTINOTTI M. G., […] P., In vitro effect of microtubule inhibitors on T. vaginalis, Microbiologia, 8:31-42, 1985. LOVGREN T. and SALMELA I., Invitro sensitivity of T. vaginalis and C. albicans to chemotherapeutic agents, Acta Path. Microbiol. Scand.. 86:155-158, 1978).

[1] = test system: T. mentagrophytes IDI D1049; assay: Antifungal activity in experimental Tinea pedis in the guinea-pig paw; format: in vivo, Hartley guinea-pig; conditions: for A (clinical sign score) / D (clinical sign score) / E (clinical sign score): scale 0-3
From the text: Twelve male Hartley guinea-pig (C. RIVER), weighing 350-400 gr, have been utilized (3 animals per experimental group).
One clinical isolate (Tricophyton mentagrophytes IDI D 1049, from Immacolata Dermatological Institute of Rome) was utilized.
Microaleuriospores were first harvested by scraping from a 7-day fungal culture grown in Potato dextrose agar, and then resuspended in Sabouraud broth with 0.5% Tween 80.
After washing, the spores were standardized in sterile saline to yield a final concentration of 1.0×10^8 spores/ml.
Each group included 3 animals, and only the left hind paw was inoculated. For the 2 control groups, 3 animals in total were used, as both hind paws of each animal were inoculated.
Filter paper discs (12-mm diameter and 0.3-mm thickness) were covered with aluminum foil in the lower part to prevent the inoculum spreading. This filter was then sticked to a 1×3-cm piece of biadesive plaster, which adhered to a gauze wrapped around the paw.
The filter paper disc was then wetted with 100 μl of the infective suspension, and subsequently fixed to the guinea-pig paw.
The animal paw was tied up with bandage and plaster, and then left in these conditions for 7 days.
Seven days after infection, the infected areas were uncovered and the type of lesion was graded according to an arbitrary scale, as follows:
These "clinical" signs were examined again on days +14, +21, and +31 (day of sacrifice of animals). Three days following the first observation of the type of lesion (day +10), treatments with the differrent formulations were started, and they went on for 20 days (once a day). Two days following the last treatment (day +31), animals were sacrificed and plantar areas of the paws were dissected into 10 parts for each paw.
These sections were plated onto Mycobiotic agar supplemented with Penicillin G and Streptomicin (100 mcg/ml). Volumes of 50 μl of both antibiotics were then added to the plantar sections to prevent any bacterial growth that might interfere with the growth of T. mentagrophytes in the samples under examination.
The data obtained were expressed as the number of microbiologically sterile cutaneous sections over the total examined sections.

[2] = 1.5%, 20 days once a day, day +31

SMILES | MIC of Metronidazole (Trichomonas vaginalis) | MIC (Trichomonas vaginalis; Trichomonas vaginalis, 24 h, read-out: MIC of Metronidazole) | eradication of infection ([1]; 1.5% Miconazole) | A (clinical sign score) ([1]; 1.5%, 7th day) | D (clinical sign score) ([1]; 1.5%, 7th day) | E (clinical sign score) ([1]; 1.5%, 7th day) | A (clinical sign score) ([1]; 1.5%, 14th day) | D (clinical sign score) ([1]; 1.5%, 14th day) | E (clinical sign score) ([1]; 1.5%, 14th day) | A (clinical sign score) ([1]; 1.5%, 21st day) | D (clinical sign score) ([1]; 1.5%, 21st day) | E (clinical sign score) ([1]; 1.5%, 21st day) | A (clinical sign score) ([1]; 1.5%, 31st day) | D (clinical sign score) ([1]; 1.5%, 31st day) | E (clinical sign score) ([1]; 1.5%, 31st day) | sterile samples (%) [1, 2] | sterile samples (n = 30), number over total [1, 2]
Cc1ncc([N+](=O)[O-])n1CCO [Metronidazole] | 50 µg/mL | 25 µg/mL | – | – | – | – | – | – | – | – | – | – | – | – | – | – | –
Clc1ccc(COC(Cn2ccnc2)c2ccc(Cl)cc2Cl)c(Cl)c1 (centres unmarked) [Miconazole, reference compound] | – | – | capable of eradicating infection from all treated samples | 0 | 0 | 0 | 0 | 0 | 0 | 0 | 0 | 0 | 0 | 0 | 0 | 100% | 30/30
